Assay results taken from patent US20260146029A1, “METHODS FOR THE TREATMENT OR PROPHYLAXIS OF ENDOMETRIOSIS” (Gesynta Pharma AB, priority 2022, published 2026).
Values joined by “and” are separate entries in the source; they are usually repeats but may differ in a detail not shown here. Identical values can stand only once.

Key:
[1] = system: Marmoset monkeys (Callithrix jacchus), established endometriosis; experiment: Colour Doppler ultrasonic scanning of blood flow (bladder area, reproductive tract area); format: in vivo; set-up: key to Individual data on blood flow bladder / Individual data on blood flow repro tract: 0=blood flow not visible; 1=weak blood flow; 2=medium blood flow; 3=massive blood flow; conditions: for Individual data on blood flow bladder / Individual data on blood flow repro tract: individual animals 1-8 (one line each), 6.67 mg/kg; for Individual data on blood flow bladder / Individual data on blood flow repro tract / Blood flow bladder, median score / Blood flow repro tract, median score: oral 6.67 mg/kg twice/day; for Blood flow bladder, median score / Blood flow repro tract, median score: median of 8 animals, scale 0-3, baseline median 2
Method: (§1) The substance as depicted below (prepared according to the procedure in WO 2012/022793 A1) was orally administered (as the hydrogen sulphate salt thereof) for 6 weeks to common marmoset monkeys at a dose of 6.67 mg/kg twice/day (calculated based on the free base, with the actual weight of compound administered calculated as required for the hydrogen sulphate salt).
(§2) The age of the marmosets ranged between 3 and 16 years. All animals were female and had established endometriosis over years. Induction of endometriosis was performed as described in Einspanier et al., Mol Human Reprod., 12(5), 291-9 (2006).
Colour Doppler ultrasonic scanning was done before and 3 times during the treatment period to follow blood flow. Colour doppler scanning was carried out as described by Einspanier (ibid).
Colour Doppler ultrasonic scanning was performed to measure blood flow in the reproductive tract (uterus and ovaries) area as well as in the bladder area.
Individual blood flow measurements are provided in Table 1, 0=blood flow not visible, 1=weak blood flow, 2=medium blood flow and 3=massive blood flow.

[2] = system: Marmoset monkeys (Callithrix jacchus), established endometriosis; experiment: Laparotomy assessment of endometriotic lesions (number and size of foci); format: in vivo
Method: as §1, §2
Laparotomy was carried out twice, seven weeks before treatment start of treatment and immediately after end of treatment. There was a duration of at least 3 months between each laparotomy.
After pre-medication with Göttinger Mischung M II (Ketamin, Xylazin and Atropin mixture), an inhalation anaesthesia with Isofluran was carried out which last in average 60 minutes. The abdomen was opened beside line alba for 1 cm range to visualise the reproductive tract and bladder. The endometriotic lesions were characterized and documented in pictures. During the second laparoptomy samples from the lesions were collected. Postoperative care of the animals was carried out as required by local law. The collected tissue samples were fixed in paraformaldehyde and embedded in paraffin or stored at −80° C. Before abdominal suture, all organs were replaced in their place. All females were separated from their males for some hours due to medical reasons and obtained antibiotics for some days.
Laparotomy analysis was performed to assess endometriotic lesions.

[3] = system: Marmoset monkeys (Callithrix jacchus), established endometriosis; experiment: Feeding tree behaviour test; format: in vivo; conditions: during treatment, all animals
From the text: (§3) Different behavioural test systems were used to study pain and discomfort, social comfort, memory, learning and activity were set up. All primates used in the study were familiar with the test-systems (for a period of more than 6 months) to confirm that the obtained results are related to the medication and not a learning effect over time.
(§4) Two test systems were used in the study as described in Arnold et al., J Med Primatol., 40, 317-326 (2011). • 1. Feeding tree • 2. Wisconsin General Testing apparatus (WGTA) Before and during the study documentation of social interaction, such as grooming, were performed.
The feeding tree was to test movement activity associated with pain, discomfort and/or distress. The feeding tree offers food at different positions to reach, which requires different levels of movement. If an animal has discomfort, distress or abdominal pain it will not search for food at upper areas or at all. Moreover, systematic search is reduced if memory is impaired. In the setting, each primate had to empty every reward-containing hideouts within 5 minutes to be fully successful. The response of the 8 animals was graded before, during and after treatment on a scale of 0-4 indicting the number of hideouts emptied within 5 minutes.

[4] = system: Marmoset monkeys (Callithrix jacchus), established endometriosis; experiment: Wisconsin General Testing Apparatus (WGTA) memory and learning test; format: in vivo; conditions: during the treatment, all females
From the text: as §3, §4
Memory and learning of the primates were tested. All animals are train-rewarded for the WGTA. The animal, which is sitting in the transport box, is either trained for special figures or places, which hide the reward. The observer can watch the behaviour of the animal, but the animal cannot see the observer.
The 8 animals were tested in the WGTA for memory by remembering either the figure or location of the hidden reward. Wellbeing of a primate is associated with willingness to search for food, which is also included by this test system. The animals have to find the reward underneath the three different figures three times within 5 minutes. Each animal is either trained for the location of the figure or figure itself.

[5] = system: Marmoset monkeys (Callithrix jacchus), established endometriosis; experiment: Social interaction (grooming) observation; format: in vivo; conditions: during treatment compared to before treatment, all animals
Method: as §4
The documentation of grooming was carried out by daytime observation. These behaviour observations give information about wellbeing, while grooming is a marker for positive social activity. The social grooming was documented 1 h after breakfast and 1 h after lunch by observing the couples each time for 10 minutes. For each animal, the number of grooming interactions in the observed period was recorded.

[6] = system: Marmoset monkeys (Callithrix jacchus), established endometriosis; experiment: General health status: clinical signs and blood chemistry; format: in vivo; conditions: oral 6.67 mg/kg twice/day for 6 weeks
Method: (§5) All animals were weighed weekly before and during the treatment. Health body checks including clinical signs as well as blood chemistry analysis were carried out in a regular manner by the responsible vet.

[7] = system: Marmoset monkeys (Callithrix jacchus), established endometriosis; experiment: Reproductive cycle monitoring by serum progesterone; format: in vivo; conditions: after treatment
Method: For analysis of serum progesterone concentration to monitor the reproductive cycle, blood was collected weekly before and during treatment. Serum was separated from blood samples by centrifugation (2600 rpm 10 min, Eppendorf Centrifuge 5810 R) within two hours of sampling and stored at minus 80° C.

[8] = Body weight (weighed weekly); format: in vivo, Marmoset monkeys (Callithrix jacchus); conditions: during the treatment period; oral 6.67 mg/kg twice/day for 6 weeks
Method: as §5

[9] = Week 7 (EoT), individual animals 1-8 (one line each), oral 6.67 mg/kg twice/day for 6 weeks
[10] = Week 7 (EoT), individual animals 1-8 (one line each), oral 6.67 mg/kg twice/day for 6 weeks, 6.67 mg/kg

Cn1c(Nc2c(Cl)ccc(CNC(=O)C(C)(C)C)c2Cl)nc2cc(C(=O)N[C@H]3CC[C@H](C(F)(F)F)CC3)c(OCC(F)F)cc21 [compound of formula I, 2-{2,6-dichloro-3-[(2,2-dimethyl-propionylamino)-methyl]-phenylamino}-6-(2,2-difluoroethoxy)-1-methyl-1H-benzoimidazole-5-carboxylic acid (trans-4-trifluoromethylcyclohexyl)-amide]
Individual data on blood flow bladder ([1]; Week 1): 3 (3×) and 2 (3×) and 1 (2×)
Individual data on blood flow repro tract ([1]; Week 1): 3 and 2 (5×) and 1 (2×)
Blood flow bladder, median score ([1]; Week 1): 2
Blood flow repro tract, median score ([1]; Week 1): 2
Individual data on blood flow bladder ([1]; Week 4): 3 and 2 (3×) and 1 (4×)
Individual data on blood flow repro tract ([1]; Week 4): 2 (3×) and 1 (4×) and 0
Blood flow bladder, median score ([1]; Week 4): 1.5
Blood flow repro tract, median score ([1]; Week 4): 1
Individual data on blood flow bladder ([1]; Week 6): 2 and 1 (7×)
Individual data on blood flow repro tract ([1]; Week 6): 2 (3×) and 1 (3×) and 0 (2×)
Blood flow in reproductive tract (uterus and ovaries) area and bladder area, result in words ([1]; all animals, both areas, oral 6.67 mg/kg twice/day for 6 weeks): Decreased blood flow
Number of endometriotic lesions repro tract, lesion size 2-4 mm [2, 9]: 0
Number of endometriotic lesions repro tract, lesion size >4 mm [2, 9]: 0
Number of endometriotic lesions on the bladder, Total [2, 10]: 4 (2×) and 14 and 24 and 7 and 12 and 5 and 10
Number of endometriotic lesions on the bladder, lesion size 2-4 mm [2, 10]: 0 (6×) and 3 and 5
Number of endometriotic lesions on the bladder, lesion size <2 mm [2, 10]: 0 (4×) and 5 and 12 and 4 and 7
Number of endometriotic lesions on the bladder, lesion size >4 mm [2, 10]: 0 (6×) and 3 and 2
Number of endometriotic lesions on the bladder, lesion size s.p. (visible but not measurable) [2, 10]: 4 and 2 and 5 (2×) and 7 and 0 and 12 and 3
Number of endometriotic lesions repro tract, Total [2, 10]: 0 (2×) and 3 (2×) and 8 and 2 (2×) and 4
Number of endometriotic lesions repro tract, lesion size <2 mm [2, 10]: 0 (5×) and 2 (2×) and 4
Number of endometriotic lesions repro tract, lesion size s.p. (visible but not measurable) [2, 10]: 0 (2×) and 1 and 4 and 3 and 2 (3×)
Endometric foci at laparotomy, result in words ([2]; all animals, all sizes of foci affected, after 6 weeks of treatment): Pronounced reduction
Success rate in the feeding tree (hideouts emptied within 5 minutes, scale 0-4) [3]: improved
WGTA success rate of correct figure or location within time [4]: increased success rate
Grooming interactions [5]: increased
Blood laboratory parameters ([6]; before and after treatment): in the physiological range
Clinical signs, general health behaviour of the study animals ([6]; during the study period, 8 female marmosets): no changes
Animals showing irregular cycles ([7]; of 8 animals, before therapy 5 irregular cycles and 1 no activity): 2 animals
Animals showing ovarian cycle activity ([7]; before therapy 2 of 8 animals showed ovarian cycle activity): 6 out of 8
Change in body weight [8]: no significant change
